Our source for the TGI values is PubChem BioAssay (NCI).

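Growth conditions: 96-well plates. Treatment: test compound, 48 hours, 5 concentrations. Analysis: linear interpolation between bracketing concentrations; unreached endpoints set to highest concentration. TGI: concentration producing complete growth inhibition.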

Assay in all cases: DTP human tumour cell line panel, 48 h
The subject of test [1] is A549 NSCLC.
The test system of test [2] is HOP-62 NSCLC.
In test [3] the test system is HS 578T breast.
The test system of test [4] is HT29 colon.
Test [5] relates to IGROV1 ovarian.
In test [6] the test system is KM12 colon.
Test [7] concerns MALME-3M melanoma.
In test [8] the test system is MDA-N.
Test [9] concerns MOLT-4 leukemia.
The test system of test [10] is NCI/ADR-RES ovarian.
Test [11] deals with OVCAR-4 ovarian.
Test [12] relates to OVCAR-8 ovarian.
The subject of test [13] is RPMI-8226 leukemia.
Test [14] has as its system SK-MEL-2 melanoma.
Test [15] relates to SN12C renal.
Test [16] relates to SNB-75 CNS.
Test [17] deals with SW-620 colon.
The test system of test [18] is U251 CNS.
In test [19] the test system is UACC-257 melanoma.
Test [20] has as its system BT-549 breast.

The TGI is the concentration at which net growth stops. With `CC(=O)NCc1nc(C#N)c(N)o1`, the TGI in test [1], in test [2], in [3], in [4], in test [5] and in test [6] was above 100 µM throughout. In addition, the TGI in test [7], in test [8], in test [9], in test [10], in test [11] and in test [12] was above 100 µM each time. In addition, the TGI in [13], in test [14], in test [15], in test [16], in test [17] and in test [18] was above 100 µM in each case. The molecule also had a total growth inhibition concentration (TGI) in test [19] above 100 µM.

`CCOC(=O)Cn1sc2ncc([N+](=O)[O-])cc2c1=O`: the TGI in test [1] is 39.7 µM; in test [2], 30 µM; in [3], above 100 µM; in test [4], 29.8 µM; in test [5], 25.9 µM; in [6], 34.3 µM. Further, the concentration for total growth inhibition (TGI) in [7] stood at 33.9 µM; in test [8], 24.9 µM; in test [9], 9.45 µM; in test [10] it was 35.5 µM; in test [11], 38 µM; in test [12], 30.3 µM. Moreover, the TGI in [13] was above 100 µM; in [14], 70.9 µM; in [15], 31.6 µM; in test [16] it was 89.1 µM; in test [17], 30.6 µM; in test [19], 31.6 µM.

For the molecule `CCOc1cc(NC(C)=O)ccc1C(=O)NN1C(=O)C(Oc2ccccc2)C1c1ccc(O)c(OC)c1` (configuration not stated), the TGI in test [1], in [20], in [2], in test [4], in test [5] and in test [6] was above 100 µM in each case. Also, the concentration for total growth inhibition (TGI) in test [8] was above 100 µM; in test [9], 32.3 µM; in test [10] it was above 100 µM; in [11], above 100 µM; in test [12] it was 96.8 µM; in [13], 51.6 µM. Besides, the total growth inhibition concentration (TGI) in test [14] is 81.2 µM; in [15] it was 99.4 µM; in test [16], above 100 µM; in test [17], above 100 µM; in test [18] it was above 100 µM; in test [19], above 100 µM.

As to `O=C(CC(=O)n1nc(-c2ccccc2)c(N=Nc2ccc(Cl)cc2)c1-c1ccccc1)Nc1cccc(Cl)c1`, the TGI in test [1], in [20], in test [2], in [3], in [4] and in test [5] was above 100 µM each time. In addition, the total growth inhibition concentration (TGI) in test [6], in [7], in test [8], in test [9], in test [12] and in [13] was above 100 µM throughout. Besides, the total growth inhibition concentration (TGI) in test [14], in [15], in test [16], in [17], in test [18] and in test [19] was above 100 µM in each case.

For `Cc1ccccc1Nc1cn(COCc2ccccc2)c(=O)[nH]c1=O`, the TGI in [1] is above 100 µM; in test [20], 66.2 µM; in [2] it was above 100 µM; in test [3], above 100 µM; in test [4] it was above 100 µM; in [5], above 100 µM. In addition, the TGI in [6], in [8], in [9], in test [10], in test [11] and in test [13] was above 100 µM each time. Besides, the TGI in [15], in test [17], in [18] and in [19] was above 100 µM in each case.

Turning to `COC(=O)c1ccc2c(c1)CC1(C2)Cc2cc3c(cc2C1=O)CCC3` (configuration not stated), the TGI in [1] was above 100 µM; in [2], above 100 µM; in test [3] it was above 100 µM; in [4] it was 34.7 µM; in test [5], above 100 µM; in test [6], 23.1 µM. In addition, the TGI in test [7] was 82.8 µM; in [8], 61.1 µM; in test [9] it was 29.2 µM; in test [10], 51.3 µM; in [11], above 100 µM; in [12], above 100 µM. Also, the TGI in test [13] was 38.7 µM; in test [14], above 100 µM; in [15] it was above 100 µM; in test [16] it was 83.6 µM; in test [17] it was above 100 µM; in test [18] it was above 100 µM. Besides, the TGI in test [19] is 46.7 µM.

On to `CC(=O)O[C@@H]1C=C(C)[C@H](CBr)O[C@@]2(C)CC[C@H](Br)C(C)(C)[C@H]12`, for which the TGI in test [1], in [20], in test [2], in [3], in test [4] and in [5] was above 100 µM in each case. Moreover, the TGI in test [6], in test [8], in [9], in test [10], in test [11] and in [12] was above 100 µM each time. The TGI in [13], in test [14], in [15], in test [16], in test [17] and in [18] was above 100 µM throughout. Further, the TGI in test [19] was above 100 µM.
